Here are results for ten compounds from PubChem BioAssay (NCI).

“And” between values parts separate entries of the source, which are not always exact repeats. Equal values may be shown once.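 Method: 48-hour compound exposure of cells in 96-well plates, five concentrations, linear interpolation of endpoints. GI50 marks 50% less growth. TGI is the concentration that stops growth completely.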

Among the test systems are A498 renal; A549 NSCLC; HCC-2998 colon; NCI-H226 lung; NCI-H23 lung; NCI-H522 lung; OVCAR-4 ovarian; OVCAR-8 ovarian; U251 CNS; UACC-62 melanoma.
Common to all, as to assay: NCI tumour cell line growth inhibition, 48 h

With `Cc1cc(Cl)ccc1N1C(=O)C(=O)C(c2nc3ccccc3s2)/C(=N\NC(=O)c2ccccc2O)C1=O` (configuration not stated), the TGI in the assay with A498 renal, in the assay on A549 NSCLC, with HCC-2998 colon, with NCI-H226 lung, with NCI-H23 lung and in the assay with NCI-H522 lung was more than 100 µM throughout. In addition, the TGI in the assay on OVCAR-4 ovarian, in the assay on OVCAR-8 ovarian, in the assay with U251 CNS and in the assay on UACC-62 melanoma was more than 100 µM each time.

In the case of `C#Cc1cccc(N2C(=O)CC(=P(c3ccccc3)(c3ccccc3)c3ccccc3)C2=O)c1`, the TGI in the assay with A498 renal, in the assay on A549 NSCLC, in the assay on HCC-2998 colon, in the assay on NCI-H226 lung, in the assay with NCI-H23 lung and in the assay with NCI-H522 lung was more than 100 µM in each case. Besides, the TGI in the assay on OVCAR-4 ovarian, in the assay on OVCAR-8 ovarian, in the assay on U251 CNS and in the assay on UACC-62 melanoma was more than 100 µM each time.

As to `CCN(CCc1ccc(F)cc1)c1ccc(CO)c(Cl)c1`, the GI50 with A498 renal was 0.12 µM; with A549 NSCLC, 9.36 µM; in the assay on HCC-2998 colon, 12.6 µM; with NCI-H226 lung it was 0.199 µM; in the assay on NCI-H23 lung, 12.2 µM; in the assay with NCI-H522 lung it was 10.9 µM. Further, the GI50 with OVCAR-4 ovarian is 2.23 µM; with OVCAR-8 ovarian, 10.8 µM; with U251 CNS, 4.06 µM; in the assay on UACC-62 melanoma it was 1.32 µM. For the same compound, the TGI with A498 renal amounted to 0.268 µM; in the assay with A549 NSCLC, 24.4 µM; with HCC-2998 colon it was 26.5 µM; with NCI-H226 lung it was 0.637 µM; in the assay with NCI-H23 lung it was 31 µM; with NCI-H522 lung, 25.4 µM. The TGI with OVCAR-4 ovarian is 15.3 µM; in the assay on OVCAR-8 ovarian, 27.4 µM; with U251 CNS, 17.3 µM; in the assay with UACC-62 melanoma, 8.41 µM.

For the compound `Cc1ccc(S(=O)(=O)NC(C)C(=O)O)cc1` (configuration not stated), the TGI with A498 renal, with A549 NSCLC, in the assay with HCC-2998 colon, in the assay with NCI-H226 lung, with NCI-H23 lung and in the assay on NCI-H522 lung was more than 100 µM each time. The TGI in the assay with OVCAR-4 ovarian, in the assay on OVCAR-8 ovarian, in the assay on U251 CNS and in the assay with UACC-62 melanoma was more than 100 µM each time.

For `C=CCCC12CCCC(=O)C1Sc1ccc3ccccc3c12` (configuration not stated), the TGI with A498 renal worked out at 26.1 µM; with A549 NSCLC it was 24.5 µM; with HCC-2998 colon, 34.2 µM; in the assay on NCI-H226 lung it was 36.2 µM; in the assay on NCI-H23 lung, 55.7 µM; with NCI-H522 lung, 35 µM. In addition, the TGI in the assay with OVCAR-4 ovarian is more than 100 µM; in the assay with OVCAR-8 ovarian it was more than 100 µM; in the assay with U251 CNS it was 33.6 µM; in the assay with UACC-62 melanoma, 40 µM.

As to `NCC(=O)OCN1C(=O)C2C3C=CC(C2C1=O)C1C2C(=O)N(COC(=O)CN)C(=O)C2C31` (configuration not stated), the TGI in the assay with A498 renal was more than 100 µM; with A549 NSCLC it was 63.7 µM and 60.6 µM; in the assay on HCC-2998 colon, 94.8 µM and > 100 µM; in the assay on NCI-H226 lung, more than 100 µM; with NCI-H23 lung, 49.1 µM and 84.7 µM; in the assay with NCI-H522 lung, 25.9 µM. Moreover, the TGI is 39.1 µM and 55.4 µM with OVCAR-4 ovarian; 47.4 µM and 39 µM in the assay on OVCAR-8 ovarian; 45 µM and 38.7 µM in the assay with U251 CNS; 50.5 µM and 56 µM with UACC-62 melanoma. Further, the GI50 with HCC-2998 colon is 31.2 µM and 69.9 µM.

Take `CC(=O)[CH-]C(=O)c1ccccc1.CC(=O)[CH-]C(=O)c1ccccc1.CC(C)CCCC(C)[C@H]1CCC2[C@@H]3CCC4C[C@@H]([O-])CC[C@]4(C)C3CC[C@@]21C.CC(C)CCCC(C)[C@H]1CCC2[C@@H]3CCC4C[C@@H]([O-])CC[C@]4(C)C3CC[C@@]21C.Cl.[Ti+4]` (some centres not stated): the GI50 with A498 renal, in the assay with A549 NSCLC, in the assay on HCC-2998 colon, in the assay on NCI-H226 lung, with NCI-H23 lung and in the assay on NCI-H522 lung was more than 25 µM each time. Also, the GI50 with OVCAR-4 ovarian, in the assay with OVCAR-8 ovarian, in the assay on U251 CNS and in the assay on UACC-62 melanoma was more than 25 µM in each case. Besides, the TGI in the assay on A498 renal, with A549 NSCLC, in the assay with HCC-2998 colon, with NCI-H226 lung, with NCI-H23 lung and with NCI-H522 lung was more than 25 µM each time. The TGI in the assay on OVCAR-4 ovarian, in the assay with OVCAR-8 ovarian, with U251 CNS and in the assay with UACC-62 melanoma was more than 25 µM throughout.

For the compound `COC(=O)/C=C\C1C(C(=O)OC)C2(C(=O)OC)CCC1(C(=O)OC)N2` (configuration not stated), the TGI in the assay with A498 renal was 32.9 µM; in the assay with A549 NSCLC it was 39.9 µM; in the assay on HCC-2998 colon it was 31.2 µM; in the assay on NCI-H226 lung it was 36.6 µM; in the assay with NCI-H23 lung it was 36.4 µM; in the assay with NCI-H522 lung, 1.76 µM. Further, the TGI was 34.5 µM with OVCAR-4 ovarian, 19 µM in the assay on OVCAR-8 ovarian, 32.7 µM in the assay on U251 CNS and 29.8 µM with UACC-62 melanoma.

In the case of `CCN(CC)CCNc1ccc(CO)c2sc3ccccc3c(=O)c12`, the GI50 with A498 renal was 1.26 µM and 6.98 µM and 3.61 µM; in the assay on A549 NSCLC, 3.2 µM; in the assay with NCI-H226 lung it was 1.74 µM; with NCI-H23 lung, 3.14 µM and 13.6 µM; with NCI-H522 lung, 1.48 µM and 8.14 µM; in the assay with OVCAR-4 ovarian, 2.49 µM and 7.63 µM. For the same compound, the GI50 in the assay with OVCAR-8 ovarian is 2.42 µM; in the assay with U251 CNS it was 3.97 µM and 12.6 µM; with UACC-62 melanoma it was 1.94 µM and 11.3 µM. Moreover, the TGI was 13.6 µM and 21.4 µM and 18.2 µM in the assay on A549 NSCLC; 25.2 µM [middle of 4 runs] in the assay with HCC-2998 colon; 4.48 µM and 44.8 µM and 26.1 µM with NCI-H226 lung; 16.4 µM and 22.7 µM and 29.3 µM with NCI-H23 lung; 18.9 µM [middle of 4 runs] in the assay on OVCAR-4 ovarian; 14 µM and 17.8 µM with OVCAR-8 ovarian. The TGI in the assay on U251 CNS was 23.7 µM [middle of 4 runs].

On to `COc1cc(C)c(N(C)C(=O)CN(C)C)cc1Nc1nc(Nc2cccc(F)c2C(N)=O)c2cc[nH]c2n1`, for which the GI50 was more than 13.9 µM in the assay with A498 renal; more than 25 µM with A549 NSCLC; more than 23.1 µM with HCC-2998 colon; more than 24 µM in the assay with NCI-H226 lung; more than 25 µM in the assay with NCI-H23 lung; more than 25 µM in the assay on NCI-H522 lung. The GI50 in the assay on OVCAR-4 ovarian, in the assay on OVCAR-8 ovarian, in the assay with U251 CNS and in the assay with UACC-62 melanoma was more than 25 µM each time. Also, the TGI in the assay with A498 renal, in the assay with A549 NSCLC, with HCC-2998 colon, in the assay on NCI-H226 lung, with NCI-H23 lung and in the assay on NCI-H522 lung was more than 25 µM each time. The TGI in the assay with OVCAR-4 ovarian, in the assay with OVCAR-8 ovarian, in the assay on U251 CNS and in the assay on UACC-62 melanoma was more than 25 µM each time.
